Values of other authors as cited in patent US10709686B2, “Methods for treating pulmonary fibrosis” (David Weinstein Consulting, Inc., priority 2018, dated 2020).

Tests used:
[1] = biological target: T1, FK506 binding protein 4 (FKBP52) (Homo sapiens, UniProt Q02790)
T1 sequence (Q02790 1-459): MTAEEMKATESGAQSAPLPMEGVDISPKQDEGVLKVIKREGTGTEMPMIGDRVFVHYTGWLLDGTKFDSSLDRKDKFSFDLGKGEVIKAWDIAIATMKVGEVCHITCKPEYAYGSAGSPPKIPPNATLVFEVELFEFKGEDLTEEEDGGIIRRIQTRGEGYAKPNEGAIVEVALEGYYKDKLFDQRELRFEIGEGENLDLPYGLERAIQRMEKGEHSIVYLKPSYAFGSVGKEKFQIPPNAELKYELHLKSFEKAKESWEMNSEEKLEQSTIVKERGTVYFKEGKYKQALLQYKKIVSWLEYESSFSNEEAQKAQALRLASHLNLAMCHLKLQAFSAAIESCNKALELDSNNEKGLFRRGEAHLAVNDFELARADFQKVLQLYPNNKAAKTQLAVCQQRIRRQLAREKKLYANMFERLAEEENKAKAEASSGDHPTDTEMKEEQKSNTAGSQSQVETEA

[2] = biological target: T2, FKBP52 (Homo sapiens, UniProt Q02790); conditions: treatment of fibroblasts for 2 hours
T2 construct: endogenous in cells
T2 sequence (Q02790 1-459): T1 sequence (Q02790 1-459)

Compound: CCC(C)(C)C(=O)C(=O)N1CCC[C@H]1C(=O)O [RT175]
- Binding affinity to FKBP52 [1]: binds with high affinity
- Translocation of FKBP52 to the nucleus [2]: results in the translocation of FKBP52 to the nucleus
